According to PubChem BioAssay (NCI):
Several values for one entry are separate records, joined by “and”; a condition that tells them apart may be missing. Equal entries are not always repeated.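 Results reflect a 48-hour exposure of cells in 96-well plates to compound at five concentrations. At the GI50, growth is halved. At the TGI there is no net growth.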

Experiments:
Experiment in all cases: NCI-60 cell line screen, 48 h
[1] = tested on: MCF7 breast
[2] = tested on: MDA-MB-435
[3] = tested on: DU-145 prostate
[4] = tested on: NCI/ADR-RES ovarian
[5] = tested on: DMS 114 small cell lung
[6] = tested on: KM20L2 colon
[7] = tested on: M19-MEL melanoma
[8] = tested on: DMS 273 small cell lung
[9] = tested on: SNB-78 CNS

SMILES: Cn1c(/C(C#N)=C/c2ccc3ccccc3c2)cc2ccccc21
- GI50 [1]: 0.0946 µM
- TGI [1]: > 100 µM
- GI50 [2]: 0.0317 µM
- TGI [2]: 0.109 µM
- GI50 [3]: 0.456 µM
- TGI [3]: > 100 µM
- GI50 [4]: 0.0648 µM
- TGI [4]: > 100 µM

SMILES: C=CCO/N=C/c1cc(NC(=S)c2ccoc2C)ccc1Cl
- TGI [1]: 23.3 µM
- TGI [2]: 54.4 µM
- TGI [3]: 27.8 µM
- TGI [4]: 29 µM

SMILES: CC(=O)N[C@H](C(=O)N[C@@H](CCCNC(=N)N)C(=O)N[C@@H](CCCCN)C(=O)N[C@@H](CCCNC(=N)N)C(=O)N[C@]1(C)CCCCCC/C=C\CCC[C@@](C)(C(=O)N[C@@H](CCCNC(=N)N)C(=O)N[C@@H](CCC(=O)O)C(=O)N[C@@H](CC(C)C)C(=O)N[C@H](C(=O)N[C@@H](CCC(=O)O)C(N)=O)C(C)C)NC(=O)[C@H](CCC(N)=O)NC(=O)[C@H](CC(C)C)NC(=O)[C@H](CC(C)C)NC(=O)[C@H](CCCNC(=N)N)NC(=O)[C@H](CCCNC(=N)N)NC(=O)[C@H](CC(C)C)NC1=O)C(C)C
- GI50 [1]: 2 µM
- TGI [1]: 32.9 µM
- GI50 [2]: 1.42 µM
- TGI [2]: 4.28 µM
- GI50 [3]: 1.87 µM
- TGI [3]: 7.44 µM
- GI50 [4]: 6.82 µM
- TGI [4]: > 50 µM

SMILES: COC1OC(C)C(OCc2ccccc2)C(OS(=O)(=O)c2ccc(C)cc2)C1OS(=O)(=O)c1ccc(C)cc1 (stereo not given)
- TGI [5]: > 100 µM
- TGI [6]: > 100 µM
- TGI [7]: > 100 µM
- TGI [8]: > 100 µM
- TGI [9]: > 100 µM

SMILES: CC1(C)OC2COC3(CNO)OC(C)(C)OC3C2O1 (stereo not given)
- TGI [5]: > 100 µM
- TGI [7]: > 100 µM
- TGI [8]: > 100 µM
- TGI [9]: > 100 µM

SMILES: Cn1cc(-c2csc(-c3cn(C)c4ccccc34)n2)c2cnccc21
- GI50 [1]: 0.324 µM
- TGI [1]: 1.66 µM
- GI50 [2]: 1.77 µM
- TGI [2]: 3.24 µM
- GI50 [3]: 2.13 µM
- TGI [3]: 4.41 µM
- GI50 [4]: 1.83 µM
- TGI [4]: 4.32 µM

SMILES: COCCOCCOCc1n(Cc2ccc3ccccc3n2)c2ccccc2[n+]1Cc1ccc2ccccc2c1
- GI50 [1]: 0.317 µM
- TGI [1]: 1.34 µM
- GI50 [2]: 0.339 µM
- TGI [2]: 1.31 µM
- GI50 [3]: 0.593 µM
- TGI [3]: 12.6 µM
- GI50 [4]: 23.4 µM
- TGI [4]: > 100 µM

SMILES: c1ccc(Cn2cnc3ccc(-c4nc(-c5ccc6c(c5)ncn6C5CCCCC5)cn5ccnc45)cc32)cc1
- GI50 [1]: 2.72 µM
- TGI [1]: > 100 µM
- GI50 [3]: 3.04 µM
- TGI [3]: 21 µM
- GI50 [4]: 1.98 µM
- TGI [4]: 5.43 µM

SMILES: C[C@H](Cn1ncnn1)Nc1ncc2cc(Oc3ccc(F)cc3F)c(=O)n(C)c2n1
- GI50 [1]: > 25 µM
- TGI [1]: > 25 µM
- GI50 [2]: > 25 µM
- TGI [2]: > 25 µM
- GI50 [3]: > 25 µM
- TGI [3]: > 25 µM
- GI50 [4]: > 25 µM
- TGI [4]: > 25 µM

SMILES: CCOC1Oc2ccccc2-c2oc(=O)c(Sc3ccc(C)cc3)cc21 (stereo not given)
- GI50 [1]: 19.8 µM
- TGI [1]: > 100 µM
- GI50 [2]: 23.6 µM
- TGI [2]: > 100 µM
- GI50 [3]: 31.8 µM
- TGI [3]: > 100 µM
- GI50 [4]: 35 µM
- TGI [4]: > 100 µM

SMILES: Cc1cn(C2OC(C)(CO)C(O)C2O)c(=O)[nH]c1=O (stereo not given)
- TGI [5]: > 100 µM
- TGI [7]: > 100 µM
- TGI [8]: > 100 µM

SMILES: CC(=O)N(C(C)=O)C1=C2c3ccccc3N(S(=O)(=O)c3ccccc3)C2n2c(=O)n(-c3ccccc3)c(=O)n2C1 (stereo not given)
- TGI [6]: > 100 µM
- TGI [7]: 94.7 µM
- TGI [8]: > 100 µM

SMILES: CC1(C)N=C(N)N=C(N)N1c1ccc(OCC(=O)Nc2ccccc2)c(Cl)c1
- GI50 [1]: 0.886 µM
- TGI [1]: > 100 µM
- GI50 [2]: 0.522 µM
- TGI [2]: > 100 µM
- GI50 [3]: 1.15 µM
- TGI [3]: > 100 µM
- GI50 [4]: > 100 µM
- TGI [4]: > 100 µM

SMILES: O=C(c1ccc2ccccc2c1)c1c(C(F)(F)F)n([O-])c2ccc(Cl)cc2[n+]1=O
- GI50 [1]: 0.417 µM
- TGI [1]: 1.43 µM
- GI50 [2]: 1.66 µM
- TGI [2]: 3.17 µM
- GI50 [3]: 1.47 µM
- TGI [3]: 2.79 µM
- GI50 [4]: 1.89 µM
- TGI [4]: 3.86 µM

SMILES: c1ccc2nc3c(cc4ccccn43)nc2c1
- GI50 [1]: > 100 µM
- TGI [1]: > 100 µM
- GI50 [2]: > 100 µM
- TGI [2]: > 100 µM
- GI50 [3]: > 100 µM
- TGI [3]: > 100 µM
- GI50 [4]: > 100 µM
- TGI [4]: > 100 µM

SMILES: O=C1C(SCCO)=C(SCCO)C(=O)c2ccccc21
- TGI [1]: 2.36 µM
- TGI [2]: 0.348 µM
- TGI [4]: 2.53 µM

SMILES: CCC1=C[C@@H]2CN(C1)Cc1c([nH]c3ccccc13)[C@@](C(=O)OC)(c1cc3c(cc1OC)N(C)[C@H]1[C@@](O)(C(=O)OC)[C@H](OC(C)=O)[C@]4(CC)[C@@H]5C[C@@H]5CN5CC[C@]31[C@@H]54)C2
- GI50 [1]: < 0.005 µM
- TGI [1]: 5.44 µM and 12.6 µM
- GI50 [3]: < 0.005 µM
- GI50 [4]: 0.111 µM and 0.662 µM
- TGI [4]: 2.82 µM and 22.6 µM

SMILES: O=C1c2cccnc2-c2nc(-c3ccncc3)cc3c2c1nc1ccccc13
- GI50 [1]: 11.4 µM
- TGI [1]: 23.5 µM
- GI50 [2]: 15.5 µM
- TGI [2]: 30.1 µM
- GI50 [3]: 20.6 µM
- TGI [3]: 42.7 µM
- GI50 [4]: 9.63 µM
- TGI [4]: 24.8 µM

SMILES: NC(=O)C1(N2CCCCC2)CCN(CCCC(=O)c2ccc(F)cc2)CC1
- GI50 [1]: 0.108 µM
- TGI [1]: > 100 µM
- GI50 [2]: 0.07 µM
- TGI [2]: 0.396 µM
- GI50 [3]: 2.83 µM
- TGI [3]: > 25.6 µM
- GI50 [4]: 29 µM
- TGI [4]: > 100 µM

SMILES: C=C(CN1CCc2ccccc2C1)c1ccc(C(=O)Nc2ccccc2N)cc1
- GI50 [1]: 2.08 µM
- TGI [1]: > 31.6 µM
- GI50 [2]: 1.47 µM
- TGI [2]: 4.23 µM
- GI50 [3]: 2.45 µM
- TGI [3]: 15.7 µM
- GI50 [4]: 1.11 µM
- TGI [4]: > 9.95 µM

SMILES: COc1ccccc1-c1cc(=O)c2ccc(C)nc2[nH]1
- TGI [1]: > 100 µM
- GI50 [2]: 22 µM
- TGI [2]: 48.7 µM
- TGI [3]: > 100 µM
- TGI [4]: > 100 µM

SMILES: C[C@H]1[C@H](C)CC[C@]2(C(=O)NCCNCCN)CC[C@]3(C)C(=CC[C@@H]4[C@@]5(C)CCC(=O)C(C)(C)[C@@H]5CC[C@]43C)[C@H]12
- GI50 [1]: 1.7 µM
- TGI [1]: 3.25 µM
- GI50 [2]: 1.73 µM
- TGI [2]: 3.23 µM
- GI50 [3]: 1.8 µM
- TGI [3]: 3.35 µM
- GI50 [4]: 5.16 µM
- TGI [4]: 20 µM

SMILES: Cn1c([N+](=O)[O-])cnc1/C=C1\Oc2cc(Cl)ccc2C1=O
- GI50 [1]: 0.712 µM
- TGI [1]: 13.3 µM
- GI50 [2]: 0.26 µM
- TGI [2]: 1.05 µM
- GI50 [3]: 0.413 µM
- TGI [3]: 4.51 µM
- GI50 [4]: 0.884 µM
- TGI [4]: > 100 µM

SMILES: O=C(/C=C/c1ccccc1)CC(c1ccccc1)N1CCOCC1 (stereo not given)
- GI50 [1]: 4.68 µM
- TGI [1]: 80.3 µM
- GI50 [2]: 1.91 µM
- TGI [2]: 4.58 µM
- GI50 [3]: 3.49 µM
- TGI [3]: 10.9 µM
- GI50 [4]: 3.37 µM
- TGI [4]: 16.3 µM

SMILES: CC1(c2ccccc2)CC(c2ccccc2)=NO1 (stereo not given)
- TGI [5]: > 100 µM
- TGI [7]: > 100 µM
- TGI [8]: > 100 µM
- TGI [9]: > 100 µM

SMILES: COc1ccc(/C=C2/CCc3cc4ccc(OC)cc4[o+]c32)c(O)c1
- GI50 [1]: 4.31 µM
- TGI [1]: 22 µM
- GI50 [2]: 1.78 µM
- TGI [2]: 3.47 µM
- GI50 [3]: 8.15 µM
- TGI [3]: 20.5 µM
- GI50 [4]: 4.16 µM
- TGI [4]: 50.6 µM
